Tests used:
SOD1-G93A mice [1] = test: Survival of SOD1 G93A mice (Kaplan-Meier); assay type: in vivo, mouse; details: for Survival time (surviving mice per group): SOD1 mice
Source text: Mice hemizygous for SOD1-G93A (also called G93A-SOD1) transgene are viable and fertile, with transgenic expression of a G93A mutant form of human SOD1. This founder line (often referred to as G1H) is reported to have a high transgene copy number. […] Motor neuron degeneration has been associated with function and/or degeneration of astrocytes, the major glial cell type of the nervous system. Transgenic mice have an abbreviated life span: 50% survive at 157.1+/−9.3 days (in contrast to the mixed B6SJL background where 50% survival is observed at 128.9+/−9.1 days). Female hemizygotes are poor breeders, and rarely produce more than one litter before the onset of disease. […] The pattern of gene expression in SOD1G93A activated microglia represents a unique ALS-specific signature. These SOD1-G93A (also called G93A-SOD1) transgenic mice us thus useful in studying neuromuscular disorders, including Amyotrophic Lateral Sclerosis.
The SOD1-G93A transgene was designed with a mutant human SOD1 gene (harboring a single amino acid substitution of glycine to alanine at codon 93) driven by its endogenous human SOD1 promoter. This transgene was injected into fertilized B6SJLF1 mouse eggs and founder animals were obtained. Transgenic mice on a mixed B6SJL genetic background were sent to The Jackson Laboratory (as Stock No. 002726). Upon arrival, some mice were backcrossed to C57BL/6J for at least 10 generations to generate this congenic strain (Stock No. 004435). The backcross was completed in July 2002.
(§1) EH301 [Nicotinamide riboside (NR) and pterostilbene (PT)] was administered orally: 185 mg of nicotinamide riboside and 30 mg of pterostilbene/Kg×day (Estrela J M, De La Rubia J E, Dellinger R W. Treating and preventing motor neuron disease using nicotinamide riboside. PCT/US 18/32932, 2018).
(§2) Dexamethasone (DXM) was administered i.p. following sequential 4 weeks-cycle along the experimental time: 1 mg/Kg×day (1st week), 0.5 mg/Kg×day (2nd week), 0.25 mg/Kg×day (3rd week), 0.0 mg/Kg×day ([…]). The dose of 1 mg/Kg was selected based on Kurkowska-Jastrzebska I, Litwin T, Joniec I, Ciesielska A, Przybyłkowski A, Członkowski A, Członkowska A. Dexamethasone protects against dopaminergic neurons damage in a mouse model of Parkinson's disease. Int Immunopharmacol. 2004 October; 4(10-11):1307-18. The cyclic dose regime was designed to optimize the therapeutic benefit causing minimal possible side effects.
(§3) Ibudilast (IB) was administered orally: 12 mg/Kg×day (Wang H, Mei Zl, Zhong K L, Hu M, Long Y, Miao M X, Li N, Yan T H, Hong H. Pretreatment with antiasthmatic drug ibudilast ameliorates Aβ 1-42-induced memory impairment and neurotoxicity in mice. Pharmacol Biochem Behav. 2014 September; 124:373-9).
(§4) Daily doses of NR, DXM and IB were administered together dissolved in 75 uL of physiological saline. PT was present in the chow of laboratory animals. The PT dose was adjusted based on the animal weight and the amount of food ingested per day.
(§5) • Data are presented as mean values f SD for the number of different experiments. • Statistical analyses were performed using Student's t-test. • P<0.05 and **P<0.01 comparing all SOD1 groups versus WT (wild type). • ^+P<0.05 and ^++P<0.01 comparing all SOD1 groups treated with EH301, DXM, IB or their combinations versus SOD1 untreated controls. • ^aP<0.05 and ^aaP<0.01 comparing SOD1+EH301+DXM or SOD1+EH301+IB groups versus SOD1+EH301. • ^bP<0.05 and ^bbP<0.01 comparing SOD1+EH301+DXM or SOD1+EH301+IB groups versus SOD1+DXM • ^cP<0.05 and ^ccP<0.01 comparing SOD1+EH301+DXM or SOD1+EH301+IB groups versus SOD1+IB

SOD1-G93A mice [2] = test: Rotarod test in SOD1 mice; assay type: in vivo, mouse; details: for Rotarod test (maximum period on rotating axle): SOD1 mice, limit 1200 seconds, mean
Description: as §1, §2, §3, §4
Functions of the test include evaluating balance, grip strength and motor coordination of the subjects; especially in testing the effect of experimental drugs. For this test (Rota Rod, Harvard Apparatus, Holliston, MA) each animal was given three trials and the maximum period (seconds) that it could remain on a rotating axle (3.5 cm diameter; speed of rotation: 15 rpm) without falling was measured. Each mouse was given up to three attempts for an arbitrary limit of 1200 seconds and the longest period was recorded. Changes over time in the different groups were monitored weekly.
as §5

SOD1-G93A mice [3] = test: Neurological score (scale of Weydt et al.) in SOD1 mice; assay type: in vivo, mouse; details: scale 0-5
Description: as §1, §2, §3, §4
This neurological score is based on the scale of Weydt et al. (Weydt, P., Hong, S. Y., Kliot, M., Moller, T., 2003. Assessing disease onset and progression in the SOD1 mouse model of ALS. NeuroReport 14, 1051-1054). […] When the animals reach a score of “4”, the access to food and water will be facilitated by placing food pellets on the cage floor to all transgenic mice. Reaching a score of “5”, the animals will be euthanized for ethical reasons. Onset is defined as the earliest time when the mice show symptoms (score <4). Changes over time in the different groups were monitored weekly.
as §5

FUS-R521C mice = test: Survival of FUS-R521C mice; assay type: in vivo, mouse
Description: FUS-R521C mice (ALS model; transgene injected into B6SJL oocytes. Maintained on C57BL/6, therefore subsequent generations have a higher percentage of C57BL/6) were selected for methods examining the effects of the addition of acetylcysteine.
Acetylcysteine (NAC) was administered intraperitoneally (IP): 100 mg/kg per day, beginning on week 30, in experiments examining the effect of the addition of NAC.

[4] = after oral administration; cited from earlier work
[5] = SOD1-G93A mice, versus control untreated

## CC(C)C(=O)c1c(C(C)C)nn2ccccc12 [IBU, 2-methyl-1-(2-(1-methylethyl)pyrazolo(1,5-a)pyridin-3-yl)1-propanone]
SOD1-G93A mice [1]; SOD1-G93A mice treated from day 50
  mean survival: 137 days
SOD1-G93A mice [1]; [5]
  survival (in words): some improvement
SOD1-G93A mice [1]; week 10
  Survival time (surviving mice per group): 10
SOD1-G93A mice [1]; week 11
  Survival time (surviving mice per group): 10
SOD1-G93A mice [1]; week 12
  Survival time (surviving mice per group): 10
SOD1-G93A mice [1]; week 13
  Survival time (surviving mice per group): 10
SOD1-G93A mice [1]; week 14
  Survival time (surviving mice per group): 10
SOD1-G93A mice [1]; week 15
  Survival time (surviving mice per group): 10
SOD1-G93A mice [1]; week 16
  Survival time (surviving mice per group): 10
SOD1-G93A mice [1]; week 17
  Survival time (surviving mice per group): 10
SOD1-G93A mice [1]; week 18
  Survival time (surviving mice per group): 10
SOD1-G93A mice [1]; week 19
  Survival time (surviving mice per group): 8
SOD1-G93A mice [1]; week 20
  Survival time (surviving mice per group): 4
SOD1-G93A mice [1]; week 21
  Survival time (surviving mice per group): 3
SOD1-G93A mice [1]; week 22
  Survival time (surviving mice per group): 1
SOD1-G93A mice [1]; week 23
  Survival time (surviving mice per group): 0
SOD1-G93A mice [2]; [5]
  motor coordination / motor-neuron dependent functions (in words): some improvement
SOD1-G93A mice [2]; week 10, 15 rpm
  Rotarod test (maximum period on rotating axle): 1200 s
SOD1-G93A mice [2]; week 11, 15 rpm
  Rotarod test (maximum period on rotating axle): 1200 s
SOD1-G93A mice [2]; week 12, 15 rpm
  Rotarod test (maximum period on rotating axle): 1200 s
SOD1-G93A mice [2]; week 13, 15 rpm
  Rotarod test (maximum period on rotating axle): 1200 s
SOD1-G93A mice [2]; week 14, 15 rpm
  Rotarod test (maximum period on rotating axle): 1200 s
SOD1-G93A mice [2]; week 15, 15 rpm
  Rotarod test (maximum period on rotating axle): 1200 s
SOD1-G93A mice [2]; week 16, 15 rpm
  Rotarod test (maximum period on rotating axle): 1200 s
SOD1-G93A mice [2]; week 17, 15 rpm
  Rotarod test (maximum period on rotating axle): 926 s
SOD1-G93A mice [2]; week 18, 15 rpm
  Rotarod test (maximum period on rotating axle): 544 s
SOD1-G93A mice [2]; week 19, 15 rpm
  Rotarod test (maximum period on rotating axle): 197 s
SOD1-G93A mice [2]; week 20, 15 rpm
  Rotarod test (maximum period on rotating axle): 102 s
SOD1-G93A mice [2]; week 21, 15 rpm
  Rotarod test (maximum period on rotating axle): 30 s
SOD1-G93A mice [2]; week 22, 15 rpm
  Rotarod test (maximum period on rotating axle): 0 s
SOD1-G93A mice [3]; week 10, mean
  Neurological score: 0
SOD1-G93A mice [3]; week 11, mean
  Neurological score: 0
SOD1-G93A mice [3]; week 12, mean
  Neurological score: 0
SOD1-G93A mice [3]; week 13, mean
  Neurological score: 0
SOD1-G93A mice [3]; week 14, mean
  Neurological score: 0
SOD1-G93A mice [3]; week 15, mean
  Neurological score: 0.30
SOD1-G93A mice [3]; week 16, mean
  Neurological score: 0.75
SOD1-G93A mice [3]; week 17, mean
  Neurological score: 1
SOD1-G93A mice [3]; week 18, mean
  Neurological score: 1.50
SOD1-G93A mice [3]; week 19, mean
  Neurological score: 2.20
SOD1-G93A mice [3]; week 20, mean
  Neurological score: 3
SOD1-G93A mice [3]; week 21, mean
  Neurological score: 3.70
SOD1-G93A mice [3]; week 22, mean
  Neurological score: 4
FUS-R521C mice; FIGS. 3A-3C, end of study 45 weeks
  survival: about 30 weeks

## CC(=O)N[C@@H](CS)C(=O)O [NAC, N-acetylcysteine]
[4]
  half-life: about 6 hours
  time to max. plasma level: 2 to 3 h
FUS-R521C mice; FIG. 3C
  survival: about 32 days

## C[C@@H]1C[C@H]2[C@@H]3CCC4=CC(=O)C=C[C@]4(C)[C@@]3(F)[C@@H](O)C[C@]2(C)[C@@]1(O)C(=O)CO [DXM, Dexamethasone]
SOD1-G93A mice [1]; week 10
  Survival time (surviving mice per group): 10
SOD1-G93A mice [1]; week 11
  Survival time (surviving mice per group): 10
SOD1-G93A mice [1]; week 12
  Survival time (surviving mice per group): 9
SOD1-G93A mice [1]; week 13
  Survival time (surviving mice per group): 9
SOD1-G93A mice [1]; week 14
  Survival time (surviving mice per group): 9
SOD1-G93A mice [1]; week 15
  Survival time (surviving mice per group): 9
SOD1-G93A mice [1]; week 16
  Survival time (surviving mice per group): 9
SOD1-G93A mice [1]; week 17
  Survival time (surviving mice per group): 9
SOD1-G93A mice [1]; week 18
  Survival time (surviving mice per group): 9
SOD1-G93A mice [1]; week 19
  Survival time (surviving mice per group): 9
SOD1-G93A mice [1]; week 20
  Survival time (surviving mice per group): 7
SOD1-G93A mice [1]; week 21
  Survival time (surviving mice per group): 4
SOD1-G93A mice [1]; week 22
  Survival time (surviving mice per group): 1
SOD1-G93A mice [1]; week 23
  Survival time (surviving mice per group): 0
SOD1-G93A mice [2]; week 10, 15 rpm
  Rotarod test (maximum period on rotating axle): 1200 s
SOD1-G93A mice [2]; week 11, 15 rpm
  Rotarod test (maximum period on rotating axle): 1200 s
SOD1-G93A mice [2]; week 12, 15 rpm
  Rotarod test (maximum period on rotating axle): 1200 s
SOD1-G93A mice [2]; week 13, 15 rpm
  Rotarod test (maximum period on rotating axle): 1200 s
SOD1-G93A mice [2]; week 14, 15 rpm
  Rotarod test (maximum period on rotating axle): 1200 s
SOD1-G93A mice [2]; week 15, 15 rpm
  Rotarod test (maximum period on rotating axle): 1130 s
SOD1-G93A mice [2]; week 16, 15 rpm
  Rotarod test (maximum period on rotating axle): 1045 s
SOD1-G93A mice [2]; week 17, 15 rpm
  Rotarod test (maximum period on rotating axle): 820 s
SOD1-G93A mice [2]; week 18, 15 rpm
  Rotarod test (maximum period on rotating axle): 336 s
SOD1-G93A mice [2]; week 19, 15 rpm
  Rotarod test (maximum period on rotating axle): 225 s
SOD1-G93A mice [2]; week 20, 15 rpm
  Rotarod test (maximum period on rotating axle): 161 s
SOD1-G93A mice [2]; week 21, 15 rpm
  Rotarod test (maximum period on rotating axle): 52 s
SOD1-G93A mice [2]; week 22, 15 rpm
  Rotarod test (maximum period on rotating axle): 0 s
SOD1-G93A mice [3]; week 10, mean
  Neurological score: 0
SOD1-G93A mice [3]; week 11, mean
  Neurological score: 0
SOD1-G93A mice [3]; week 12, mean
  Neurological score: 0
SOD1-G93A mice [3]; week 13, mean
  Neurological score: 0
SOD1-G93A mice [3]; week 14, mean
  Neurological score: 0.50
SOD1-G93A mice [3]; week 15, mean
  Neurological score: 0.70
SOD1-G93A mice [3]; week 16, mean
  Neurological score: 1
SOD1-G93A mice [3]; week 17, mean
  Neurological score: 1
SOD1-G93A mice [3]; week 18, mean
  Neurological score: 1.60
SOD1-G93A mice [3]; week 19, mean
  Neurological score: 2.50
SOD1-G93A mice [3]; week 20, mean
  Neurological score: 3
SOD1-G93A mice [3]; week 21, mean
  Neurological score: 3.40
SOD1-G93A mice [3]; week 22, mean
  Neurological score: 4
